The source of these data is patent US20050063999A1, “Use of at least one (dihydro)jasmonic acid derivative as a desquamating agent” (priority 2003, published 2005).

The experiment deals with stratum corneum. In words: Desquamating power: count of corneocytes released from isolated stratum corneum discs after incubation with the test compound. It counts as cell-based. The following applies: 1 % by weight compound in PBS buffer + 0.1% Triton X100, pH 7.4, 37° C., 24 hours, with stirring. On the procedure: The desquamating power of the compound prepared in Example 1 above was studied. This test comprised counting the corneocytes released after incubating batches of stratum corneum, isolated by trypsin/heat from plastic surgery operations, in the presence of the test compound.
Discs of stratum corneum 4 mm in diameter were cut out with a punch and placed at the bottom of a 96-well plate. Two different stratum corneum samples were used.
A solution was prepared comprising 1 % by weight of compound of Example 1 in a PBS buffer supplemented at 0.1% with Triton X100. The pH of the solution was readjusted to 7.4.
50 microliters of test solution or of control solution (PBS buffer supplemented at 0.1% with Triton X100) were added to each well. The experiment was repeated three times. The mixture was incubated at 37° C., with stirring, for 24 hours.
10 microliters of solution were then collected and placed in a Mallassez cell. The corneocytes released were counted under a microscope.
The following results were obtained, which express the mean, for the three trials, of the number of corneocytes released per microliter. The corneocyte fragments were not counted.

SMILES strings stand for the structures.

On to `CCCCCC1C(CC(=O)O)CCC1OC` (racemic) [Compound of Example 1], for which the “number of corneocytes released per microliter, mean (3 trials per sample), Sample No. 1” value (stratum corneum Sample No. 1, control 6 ± 1) came to 17 ± 6 per microliter. The “number of corneocytes released per microliter, mean (3 trials per sample), Sample No. 2” value (stratum corneum Sample No. 2, control 6 ± 2) stood at 16 ± 6 per microliter.
